In patent US20240189315A1, “Cyclic Pyridine Derivatives as cGAS Inhibitors” (Boehringer Ingelheim International GmbH, priority 2022, published 2024):
Where two headings read alike, the source gives them in different places.

Columns and labels:
[1] = target: T1, cellular cGAS activity in baculovirus-stimulated THP1-Dual cells (Homo sapiens (Human), UniProt Q8N884); conditions: Table 4; compounds and methyl ester prodrugs of PCT/EP2022/062480 and PCT/EP2022/062496; read-out: THP1(vir) IC50; cited from earlier work
[2] = target: cellular cGAS activity in dsDNA-stimulated human whole blood (Homo sapiens (Human), UniProt Q8N884); conditions: Table 4; compounds and methyl ester prodrugs of PCT/EP2022/062480 and PCT/EP2022/062496; read-out: hWB IC50; cited from earlier work
[3] = tested on: pathway directly downstream of cGAS in cGAMP-stimulated THP1-Dual cells; conditions: Table 4; compounds and methyl ester prodrugs of PCT/EP2022/062480 and PCT/EP2022/062496; cited from earlier work
[4] = amide bond, HATU, 25.0 °C, 1.0 h
THP-1 = conditions: Table 3, page 67/68 of WO 2022/174012; read-out: cellular IC50-value group (IFNβ ELISA stimulated with THP-1); cited from earlier work
[5] = target: T1, cellular cGAS activity in baculovirus-stimulated THP1-Dual cells; assay: Human cGAS cell assay (THP1(vir) IC50): IFN induction in virus-stimulated THP1-Dual cells, IRF Lucia luciferase reporter;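 also: Eight-point dilution series starting at 10 µM, 1% DMSO, 18 h at 37 °C, luminescence read-out, virus-free wells as 0% and DMSO-treated virus-stimulated wells as 100%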; assay type: cell-based; conditions: Table 3; Compound No. 5 of WO 2022/174012; read-out: THP1(vir) IC50
Human cGAS enzyme = Human cGAS enzyme (Homo sapiens (Human), UniProt Q8N884); assay: Human cGAS enzyme assay (hcGAS IC50, in vitro), cGAMP formation by RapidFire MS;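 also: recombinant human cGAS activated by 45 bp dsDNA with 30 µM each ATP and GTP, 90 min, cGAMP vs cyclic-di-GMP standard by MS, 8-point titration from 10 µM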; assay type: biochemical; conditions: Table 3; Compound No. 5 of WO 2022/174012 re-tested in the applicant's assay
[6] = tested on: pathway directly downstream of cGAS in cGAMP-stimulated THP1-Dual cells; assay: cGAMP stimulated counter cell assay (THP1(cGAMP) IC50): IFN induction in cGAMP-stimulated THP1-Dual cells; assay type: cell-based, human; conditions: Homo sapiens, THP1-Dual; Table 3; Compound No. 5 of WO 2022/174012; read-out: THP1(cGAMP) IC50
Summary of the method: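 THP1-Dual cells with IRF-driven Lucia luciferase reporter, stimulated by empty baculovirus (cGAS route) or by cGAMP (counter assay); 5000 cells/well, 8-point dilutions from 10 μM top, 1% DMSO, 18 h at 37° C. Luminescence read; IC50 by 4-parameter logistic fit against unstimulated low control.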

T1 sequence (Q8N884 whole entry): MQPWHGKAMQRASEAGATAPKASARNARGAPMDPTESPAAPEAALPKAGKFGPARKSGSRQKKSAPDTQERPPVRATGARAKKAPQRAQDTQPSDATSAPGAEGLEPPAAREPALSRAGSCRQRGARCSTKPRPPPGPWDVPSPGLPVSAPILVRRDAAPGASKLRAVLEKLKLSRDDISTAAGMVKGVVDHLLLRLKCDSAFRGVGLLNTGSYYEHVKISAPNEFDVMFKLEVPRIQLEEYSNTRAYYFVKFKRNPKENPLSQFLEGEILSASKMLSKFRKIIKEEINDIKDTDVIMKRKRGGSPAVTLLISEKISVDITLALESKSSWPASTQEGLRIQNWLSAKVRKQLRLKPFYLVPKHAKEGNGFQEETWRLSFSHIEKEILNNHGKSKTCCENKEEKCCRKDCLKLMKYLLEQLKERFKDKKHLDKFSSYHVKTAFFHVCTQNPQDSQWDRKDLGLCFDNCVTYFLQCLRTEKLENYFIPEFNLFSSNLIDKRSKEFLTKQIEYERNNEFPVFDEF
Chain of cellular cGAS activity in dsDNA-stimulated human whole blood (Q8N884 whole entry): as above
Chain of Human cGAS enzyme (Q8N884 whole entry): as above

Row | SMILES | IC50 [1] [nM] | IC50 [2] [nM] | IC50 [3] [nM] | further results
1 | C[C@@H]1N(c2cccnc2O[C@H]2C[C@@H](C(=O)O)N(c3nc(C(F)F)nc4c3oc3ccccc34)C2)CCOC12COC2 [Ex. 4.04 of PCT/EP2022/062480] | 386 | 77 | > 16600 | –
2 | COC(=O)[C@@H]1C[C@H](Oc2ncc(Br)cc2N2CCOC3(COC3)[C@@H]2C)CN1c1nc(C(F)(F)F)nc2c1oc1ccccc12 [P02 of PCT/EP2022/062480] | 444 | 5330 | 17100 | –
3 | C[C@H]1CN2CC[C@]1(F)c1cc(Cl)cnc1O[C@H]1C[C@@H](C(=O)OC(C)(C)C)N(C1)c1nc(nc3c1oc1ccccc13)CC(=O)NCCCC2=O | – | – | – | ring closure, yield of all isomers ([4]; from C[C@H]1CN(C(=O)CCCN)CC[C@]1(F)c1cc(Cl)cnc1O[C@H]1C[C@@H](C(=O)OC(C)(C)C)N(c2nc(CC(=O)O)nc3c2oc2ccccc23)C1, DMF, 10.0 mM): 42%
4 | Cc1nc(N2C[C@@H](CC(=O)Nc3ccc(-c4ccccc4)cc3)C[C@H]2C(=O)O)c2oc3ccccc3c2n1 [Compound 5 (BBL0100455), reference compound] | – | – | – | IC50 (THP-1): < 1000 nM; IC50 [5]: > 10000 nM; IC50 (Human cGAS enzyme): 55 nM; IC50 [6]: > 10000 nM
5 | C[C@H]1CN2CC[C@]1(F)c1cc(Cl)cnc1O[C@H]1C[C@@H](C(=O)OC(C)(C)C)N(C1)c1nc(nc3c1oc1ccccc13)CC(=O)NCCOC2=O | – | – | – | ring closure, yield of all isomers ([4]; from C[C@H]1CN(C(=O)OCCN)CC[C@]1(F)c1cc(Cl)cnc1O[C@H]1C[C@@H](C(=O)OC(C)(C)C)N(c2nc(CC(=O)O)nc3c2oc2ccccc23)C1, DMA, 15.75 mM): 11.3%
6 | C[C@H]1CS(=O)(=O)CC[C@]1(F)c1cc(Cl)cnc1O[C@H]1C[C@@H](C(=O)O)N(c2nc(C(F)F)nc3c2oc2ccccc23)C1 [Ex. 1.13 of PCT/EP2022/062496] | 6 | 6 | 22500 | –
7 | COC(=O)[C@@H]1C[C@H](Oc2ncc(Cl)cc2[C@@]2(F)CCS(=O)(=O)C[C@@H]2C)CN1c1nc(C(F)F)nc2c1oc1ccccc12 [P02 of PCT/EP2022/062496] | 29 | 140 | > 16600 | –
8 | COC(=O)[C@@H]1C[C@H](Oc2ncc(Cl)cc2[C@@]2(OC)CC(C)(C)S(=O)(=O)C[C@@H]2C)CN1c1nc(C(F)F)nc2c1oc1ccccc12 [P03 of PCT/EP2022/062496] | 202 | 1990 | 20600 | –
9 | C#Cc1cnc(O[C@H]2C[C@@H](C(=O)OC)N(c3nc(C(F)(F)F)nc4c3oc3ccccc34)C2)c([C@@]2(F)CCS(=O)(=O)C[C@@H]2C)c1 [P01 of PCT/EP2022/062496] | 11 | 67 | > 16600 | –
